# Laboratory results from patent US9828379B2 (priority 2013, dated 2017).
# Experiments:
# ABHD6 [1] = target: T1, ABHD6 (Mus musculus, UniProt Q8R2Y0); test: biochemical; settings: in vitro competitive ABPP
# T1 sequence (Q8R2Y0 1-336): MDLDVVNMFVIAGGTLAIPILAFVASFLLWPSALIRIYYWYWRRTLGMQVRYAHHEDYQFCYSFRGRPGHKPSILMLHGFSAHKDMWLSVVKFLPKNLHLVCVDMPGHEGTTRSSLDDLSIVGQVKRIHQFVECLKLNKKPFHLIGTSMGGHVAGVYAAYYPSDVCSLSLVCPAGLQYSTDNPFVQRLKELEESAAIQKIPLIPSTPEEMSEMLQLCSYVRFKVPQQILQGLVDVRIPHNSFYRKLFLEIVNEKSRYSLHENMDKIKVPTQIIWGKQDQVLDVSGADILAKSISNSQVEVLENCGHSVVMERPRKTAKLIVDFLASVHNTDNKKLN
# FAAH [2] = target: T2, FAAH (Mus musculus, UniProt O08914); test: biochemical; settings: in vitro competitive ABPP
# T2 sequence (O08914 1-579): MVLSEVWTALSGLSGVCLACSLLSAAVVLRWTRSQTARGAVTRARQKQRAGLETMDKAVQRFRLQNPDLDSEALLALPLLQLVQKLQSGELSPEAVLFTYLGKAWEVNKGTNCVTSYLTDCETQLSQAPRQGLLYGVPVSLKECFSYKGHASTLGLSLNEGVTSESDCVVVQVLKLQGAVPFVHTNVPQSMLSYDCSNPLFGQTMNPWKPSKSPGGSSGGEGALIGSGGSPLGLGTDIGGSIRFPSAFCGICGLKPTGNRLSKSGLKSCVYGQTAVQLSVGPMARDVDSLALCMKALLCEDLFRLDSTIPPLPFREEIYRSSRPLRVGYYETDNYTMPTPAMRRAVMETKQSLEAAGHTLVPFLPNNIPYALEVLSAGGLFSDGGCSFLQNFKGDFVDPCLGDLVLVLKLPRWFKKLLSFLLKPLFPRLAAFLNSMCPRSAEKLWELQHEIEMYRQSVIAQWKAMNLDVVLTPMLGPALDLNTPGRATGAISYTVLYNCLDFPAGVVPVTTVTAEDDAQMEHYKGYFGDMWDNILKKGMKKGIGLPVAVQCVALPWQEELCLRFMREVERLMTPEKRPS
# MAGL [3] = target: T3, MAGL (Mus musculus, UniProt O35678); test: biochemical; settings: mouse; in vitro competitive ABPP; read-out: Mouse (IC50 value, nM) MAGL
# T3 sequence (O35678 1-303): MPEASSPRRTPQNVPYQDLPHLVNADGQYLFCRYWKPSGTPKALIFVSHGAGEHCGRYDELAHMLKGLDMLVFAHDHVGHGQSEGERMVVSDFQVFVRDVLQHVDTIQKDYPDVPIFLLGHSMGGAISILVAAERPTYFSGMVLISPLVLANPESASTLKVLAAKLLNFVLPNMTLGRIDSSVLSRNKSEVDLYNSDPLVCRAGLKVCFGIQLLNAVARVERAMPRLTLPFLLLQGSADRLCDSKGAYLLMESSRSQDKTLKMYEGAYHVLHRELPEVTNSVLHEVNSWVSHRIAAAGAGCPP
# Mouse brain MAGL = target: T4, Mouse brain MAGL (Mus musculus, UniProt O35678); test: Mouse brain proteomes from inhibitor treated mice (oral gavage, ABPP analysis); assay type: in vivo; settings: p.o., sacrificed 4 h following administration
# T4 construct: from tissue; host or cells: brain of wild-type C57Bl/6J mice dosed by oral gavage
# T4 sequence (O35678 1-303): T3 sequence (O35678 1-303)
# Procedure: After 30 min, FP—Rh (1.0 μL, 50 μM in DMSO) was added and the mixture was incubated for another 30 min at 37° C. Reactions were quenched with SDS loading buffer (50 μL-4×) and run on SDS-PAGE. Following gel imaging, serine hydrolase activity was determined by measuring fluorescent intensity of gel bands corresponding to MAGL, ABHD6 and FAAH using ImageJ 1.43 u software.
# Inhibitors were administered to wild-type C57Bl/6J by oral gavage in a vehicle of polyethylene glycol. Each animal was sacrificed 4 h following administration and brain proteomes were prepared and analyzed according to previously established methods (See Niphakis, M. J., et al. (2011) ACS Chem. Neurosci. and Long, J. Z., et al. Nat. Chem. Biol. 5:37-44).
# ABHD6 [4] = target: T1, ABHD6; test: In vitro competitive activity-based protein profiling (Table 2, % inhibition at 1 μM); assay type: biochemical; settings: read-out: % Inhibition at 1 μM ABHD6
# FAAH [5] = target: T2, FAAH; test: as above; assay type: biochemical; settings: read-out: % Inhibition at 1 μM FAAH
# MAGL [6] = target: T3, MAGL; test: as above; assay type: biochemical; settings: read-out: % Inhibition at 1 μM MAGL
# Procedure: After 30 min, FP—Rh (1.0 μL, 50 μM in DMSO) was added and the mixture was incubated for another 30 min at 37° C. Reactions were quenched with SDS loading buffer (50 μL-4×) and run on SDS-PAGE.
# Cell lysates were diluted with mock proteomes for use in competitive ABPP experiments.
Compound,IC50 (ABHD6 [1]),IC50 (FAAH [2]),IC50 (MAGL [3]),inhibition at 5 mg/kg (Mouse brain MAGL),inhibition at 1 µM (ABHD6 [4]),inhibition at 1 µM (FAAH [5]),inhibition at 1 µM (MAGL [6])
"CS(=O)(=O)N1CCN(c2cc(Cl)ccc2CN2CC3CN(C(=O)OC(C(F)(F)F)C(F)(F)F)CC3C2)CC1 (stereo not drawn) [Example 36, 1,1,1,3,3,3-Hexafluoropropan-2-yl 5-[[4-chloro-2-(4-methanesulfonylpiperazin-1-yl)phenyl]methyl]-octahydropyrrolo[3,4-c]pyrrole-2-carboxylate]",100 to 1000 nM,1000 to 10000 nM,< 100 nM,25 to 75%,25 to 75%,< 25%,> 75%
"CCn1cc(CN2CC3CN(C(=O)OC(C(F)(F)F)C(F)(F)F)CC3C2)c(-c2ccccc2N2CCC2)n1 (stereo not drawn) [Example 63, 1,1,1,3,3,3-Hexafluoropropan-2-yl 5-([3-[2-(azetidin-1-yl)phenyl]-1-ethyl-1H-pyrazol-4-yl]methyl)-octahydropyrrolo[3,4-c]pyrrole-2-carboxylate]",100 to 1000 nM,> 10000 nM,< 100 nM,≥ 75%,25 to 75%,< 25%,> 75%
"Cn1cc(CN2CC3CN(C(=O)OC(C(F)(F)F)C(F)(F)F)CC3C2)c(-c2ccccc2)n1 (stereo not drawn) [Example 50, 1,1,1,3,3,3-Hexafluoropropan-2-yl 5-((1-methyl-3-phenyl-1H-pyrazol-4-yl)methyl)hexahydropyrrolo[3,4-c]pyrrole-2(1H)-carboxylate]",1000 to 10000 nM,1000 to 10000 nM,< 100 nM,25 to 75%,25 to 75%,< 25%,> 75%
"CC(C)n1cc(CN2CC3CN(C(=O)OC(C(F)(F)F)C(F)(F)F)CC3C2)c(-c2ccccc2Cl)n1 (stereo not drawn) [Example 54, 1,1,1,3,3,3-Hexafluoropropan-2-yl 5-[[3-(2-chlorophenyl)-1-(propan-2-yl)-1H-pyrazol-4-yl]methyl]-octahydropyrrolo[3,4-c]pyrrole-2-carboxylate]",100 to 1000 nM,> 10000 nM,< 100 nM,25 to 75%,25 to 75%,< 25%,> 75%
"CC(=O)N1CCC2(CCN(c3ccccc3CN3CC4CN(C(=O)OC(C(F)(F)F)C(F)(F)F)CC4C3)C2)C1 (stereo not drawn) [Example 135, 1,1,1,3,3,3-hexafluoropropan-2-yl 5-[(2-[7-acetyl-2,7-diazaspiro[4.4]nonan-2-yl]phenyl)methyl]-octahydropyrrolo[3,4-c]pyrrole-2-carboxylate]",1000 to 10000 nM,1000 to 10000 nM,< 100 nM,≤ 25%,< 25%,< 25%,> 75%
"O=C(OC(C(F)(F)F)C(F)(F)F)N1CC2CN(Cc3cccc(Cl)c3N3CC[C@H](CF)C3)CC2C1 (stereo partly drawn) [Example 173, 1,1,1,3,3,3-hexafluoropropan-2-yl 5-([3-chloro-2-[(3S)-3-(fluoromethyl)pyrrolidin-1-yl]phenyl]methyl)-octahydropyrrolo[3,4-c]pyrrole-2-carboxylate]",> 10000 nM,1000 to 10000 nM,< 100 nM,25 to 75%,25 to 75%,< 25%,> 75%
"CS(=O)(=O)N1CCC2(CCN(c3ccccc3CN3CC4CN(C(=O)OC(C(F)(F)F)C(F)(F)F)CC4C3)C2)C1 (stereo not drawn) [Example 134, 1,1,1,3,3,3-hexafluoropropan-2-yl 5-[(2-[7-methanesulfonyl-2,7-diazaspiro[4.4]nonan-2-yl]phenyl)methyl]-octahydropyrrolo[3,4-c]pyrrole-2-carboxylate]",1000 to 10000 nM,1000 to 10000 nM,< 100 nM,≤ 25%,< 25%,25 to 75%,> 75%
"Cc1c(CN2CC3CN(C(=O)OC(C(F)(F)F)C(F)(F)F)CC3C2)cccc1N1C2CCC1COC2 (stereo not drawn) [Example 127, 1,1,1,3,3,3-hexafluoropropan-2-yl 5-[(2-methyl-3-[3-oxa-8-azabicyclo[3.2.1]octan-8-yl]phenyl)methyl]-octahydropyrrolo[3,4-c]pyrrole-2-carboxylate]",1000 to 10000 nM,1000 to 10000 nM,< 100 nM,25 to 75%,25 to 75%,< 25%,> 75%
"CCn1cc(CN2CC3CN(C(=O)OC(C(F)(F)F)C(F)(F)F)CC3C2)c(-c2cccc(N3CCCCC3)c2)n1 (stereo not drawn) [Example 132, 1,1,1,3,3,3-hexafluoropropan-2-yl 5-([1-ethyl-3-[3-(piperidin-1-yl)phenyl]-1H-pyrazol-4-yl]methyl)-octahydropyrrolo[3,4-c]pyrrole-2-carboxylate]",1000 to 10000 nM,1000 to 10000 nM,< 100 nM,≤ 25%,< 25%,< 25%,> 75%
"CC(=O)N1CCN(c2cc(C(C)C)ccc2CN2CC3CN(C(=O)OC(C(F)(F)F)C(F)(F)F)CC3C2)CC1 (stereo not drawn) [Example 24, 1,1,1,3,3,3-Hexafluoropropan-2-yl 5-[[2-(4-acetylpiperazin-1-yl)-4-(propan-2-yl)phenyl]methyl]-octahydropyrrolo[3,4-c]pyrrole-2-carboxylate]",1000 to 10000 nM,> 10000 nM,< 100 nM,≤ 25%,25 to 75%,< 25%,> 75%
"CCn1cc(CN2CC3CN(C(=O)OC(C(F)(F)F)C(F)(F)F)CC3C2)c(-c2ccccc2N2CCOCC2)n1 (stereo not drawn) [Example 131, 1,1,1,3,3,3-hexafluoropropan-2-yl 5-([1-ethyl-3-[2-(morpholin-4-yl)phenyl]-1H-pyrazol-4-yl]methyl)-octahydropyrrolo[3,4-c]pyrrole-2-carboxylate]",1000 to 10000 nM,> 10000 nM,< 100 nM,≥ 75%,< 25%,< 25%,> 75%
"CCn1cc(CN2CC3CN(C(=O)OC(C(F)(F)F)C(F)(F)F)CC3C2)c(-c2ccc(N3CCCC3)cc2)n1 (stereo not drawn) [Example 67, 1,1,1,3,3,3-Hexafluoropropan-2-yl 5-([1-ethyl-3-[4-(pyrrolidin-1-yl)phenyl]-1H-pyrazol-4-yl]methyl)-octahydropyrrolo[3,4-c]pyrrole-2-carboxylate]",1000 to 10000 nM,1000 to 10000 nM,< 100 nM,25 to 75%,< 25%,< 25%,> 75%
